The text below walks through data of ChEMBL document CHEMBL4265869, “Prodrugs of triterpenoids and their derivatives” (Eur J Med Chem, 2017).

For data set [1], the system named is A549. Nature of the data set: Cytotoxicity in human A549 cells. Format: functional, cell-based.
Data set [2] in a line: Selectivity index, ratio of EC50 for mouse NIH/3T3 cells to EC50 for human A549 cells. The conditions noted are these: NIH/3T3 cells and A549 cells, read-out: Ratio EC50. It counts as toxicity.
Data set [3] concerns HT-29. In words: Cytotoxicity in human HT-29 cells by photometric SRB assay. Format: functional, cell-based. (The SRB assay estimates cell density from bound dye.)
Data set [4] has as its system FaDu. In words: Cytotoxicity in human FADU cells by photometric SRB assay. It counts as functional, cell-based.
The test system of data set [5] is SW-1736. Nature of the data set: Cytotoxicity in human SW1736 cells by photometric SRB assay. It counts as functional, cell-based.
Data set [6] has as its system A549. In words: Cytotoxicity in human A549 cells by photometric SRB assay. Format: functional, cell-based.
Data set [7] deals with 518A2. Nature of the data set: Cytotoxicity in human 518A2 cells by photometric SRB assay. It counts as functional, cell-based.
Data set [8] deals with MCF7. In words: Cytotoxicity in human MCF7 cells by photometric SRB assay. Format: functional, cell-based.

Consider `CC(C)=CC(=O)O[C@@H]1CC(C)(C)C[C@H]2C3=CC[C@@H]4[C@@]5(C)CC[C@H](OC(=O)Cc6ccccc6Cc6c(Cl)cccc6Cl)C(C)(C)[C@@H]5CC[C@@]4(C)[C@]3(C)CCC12C(=O)O` (single isomer, unassigned), for which, in data set [1], the half-maximal inhibitory concentration (IC50) (usually the concentration that gives 50% inhibition) is 0.42 µM.
Same read-out and setting: the value for `C/C=C(\C)C(=O)O[C@@H]1CC(C)(C)C[C@H]2C3=CC[C@@H]4[C@@]5(C)CC[C@H](Oc6ccccc6C(C)=O)C(C)(C)[C@@H]5CC[C@@]4(C)[C@]3(C)CCC12C(=O)O` (single isomer, unassigned) was 0.77 µM.
For the molecule `COC(=O)[C@]12CCC(C)(C)C[C@H]1C1=CC(=O)[C@@H]3[C@@]4(C)CC[C@H](OS(N)(=O)=O)C(C)(C)[C@@H]4CC[C@@]3(C)[C@]1(C)CC2`, the selectivity ratio in data set [2] was 2.7.
Consider `C/C=C(\C)C(=O)O[C@@H]1CC(C)(C)C[C@H]2C3=CC[C@@H]4[C@@]5(C)CC[C@H](OC(=O)Cc6ccccc6Cc6c(Cl)cccc6Cl)C(C)(C)[C@@H]5CC[C@@]4(C)[C@]3(C)CCC12C(=O)O` (single isomer, unassigned), for which, in data set [1], inhibition was half-maximal at 0.15 µM (IC50).
On to `COC(=O)[C@]12CCC(C)(C)C[C@H]1C1=CC[C@@H]3[C@@]4(C)C[C@@H](O)[C@H](OS(N)(=O)=O)C(C)(C)[C@@H]4CC[C@@]3(C)[C@]1(C)CC2`, for which the EC50 in data set [3], in data set [4], in data set [5], in data set [6], in data set [7] and in data set [8] was 2.2 to 3.5 µM in each case.
